# Source: ChEMBL document CHEMBL1201862, “PubChem BioAssay data set” (2004)
# Activity calls are given as the source filed them.
# How the values were obtained:
# [1] = target: T1, Oxysterols receptor LXR-beta (Homo sapiens, UniProt P55055); assay type: functional, cell-based;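 note: Cell-based luminescence dose-response assay of agonist activity at LXR, run as a confirmatory counterscreen to a daf-12 agonist screen; HEK293 cells with Gal4-LXR fusion and GAL4-driven luciferase reporter; agonist potency from rising luciferase signal of a Gal4-LXR reporter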
# T1 sequence (P55055 whole entry): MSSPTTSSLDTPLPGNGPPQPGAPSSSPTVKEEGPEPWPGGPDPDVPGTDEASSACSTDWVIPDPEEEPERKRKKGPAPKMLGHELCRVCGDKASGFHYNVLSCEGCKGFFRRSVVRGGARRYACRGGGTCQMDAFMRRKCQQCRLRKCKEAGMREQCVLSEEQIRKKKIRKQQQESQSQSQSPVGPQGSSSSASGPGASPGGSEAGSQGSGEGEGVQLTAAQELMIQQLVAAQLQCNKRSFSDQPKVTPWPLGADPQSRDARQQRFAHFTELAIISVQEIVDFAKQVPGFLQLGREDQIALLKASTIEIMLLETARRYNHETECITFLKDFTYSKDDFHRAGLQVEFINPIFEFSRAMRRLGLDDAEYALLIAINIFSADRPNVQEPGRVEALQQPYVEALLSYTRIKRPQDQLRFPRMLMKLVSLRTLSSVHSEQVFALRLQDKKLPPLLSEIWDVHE
# [2] = cells
# [3] = tested on: H4; experiment: Luminescence Cell-Based Dose Response HTS to Identify Activators of 5'UTR Stem-Loop Driven Prion Protein mRNA Translation in H4 Neuroglioblastoma Cells. [Related pubchem assays: 1829 (Project Summary), 1814 (Primary HTS)]; assay type: functional; settings: Homo sapiens
# [4] = Luminescence Cell-Based Dose Confirmation to Identify Activators of 5'UTR Stem-Loop Driven Alpha-Synuclein mRNA Translation in H4 Neuroglioblastoma Cells. [Related pubchem assays: 1829 (Project Summary), 1814 (Primary HTS)]; assay type: functional
# [5] = Luminescence Cell-Based Dose Response HTS to Identify Activators of Luciferase Translation or Activity in H4 […] Cells. [Related pubchem assays: 1829 (Project Summary), 1814 (Primary HTS)]; assay type: functional
# [6] = Luminescence Cell-Based Dose Response to Identify Activators of 5'UTR Stem-Loop Driven Prion Protein mRNA Translation in H4-C Neuroglioblastoma Cells. [Related pubchem assays: 1829 (Project Summary), 1814 (Primary HTS)]; assay type: functional
# [7] = Luminescence Cell-Based Dose Response to Identify Activators of Luciferase Translation or Activity in H4-C Neuroglioblastoma Cells. [Related pubchem assays: 1829 (Project Summary), 1814 (Primary HTS)]; assay type: functional
# [8] = cells; assay type: functional, cell-based; settings: HEK-CNG
# [9] = target: T2, Galanin receptor type 3 (Homo sapiens, UniProt O60755); experiment: Fluorescence-based cell-based primary high throughput dose response assay to identify antagonists of the Galanin Receptor 3 (GalR3).; assay type: functional
# T2 sequence (O60755 whole entry): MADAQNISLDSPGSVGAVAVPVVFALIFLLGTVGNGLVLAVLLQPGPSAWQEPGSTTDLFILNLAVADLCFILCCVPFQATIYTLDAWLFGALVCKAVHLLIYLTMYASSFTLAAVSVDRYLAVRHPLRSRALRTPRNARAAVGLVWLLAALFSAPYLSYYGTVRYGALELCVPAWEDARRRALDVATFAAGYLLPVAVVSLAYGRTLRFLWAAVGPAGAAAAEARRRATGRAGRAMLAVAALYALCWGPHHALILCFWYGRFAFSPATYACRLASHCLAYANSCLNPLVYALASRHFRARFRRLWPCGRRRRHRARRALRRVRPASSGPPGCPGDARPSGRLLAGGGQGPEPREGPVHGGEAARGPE
# [10] = target: T3, Heat shock factor protein 1 (Mus musculus, UniProt P38532); experiment: HSF1 potentiators in luciferase reporter cells, confirmation, cell-based, NIH3T3, luminescence, dose retest (AID 435004); assay type: functional;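 note: stress induced by proteasome inhibitor MG132 added 30 min after compound; luciferase reporter driven by HSF1 response element in NIH3T3 cells; actives raise luminescence as potentiators of the MG132 stress response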
# T3 sequence (P38532 whole entry): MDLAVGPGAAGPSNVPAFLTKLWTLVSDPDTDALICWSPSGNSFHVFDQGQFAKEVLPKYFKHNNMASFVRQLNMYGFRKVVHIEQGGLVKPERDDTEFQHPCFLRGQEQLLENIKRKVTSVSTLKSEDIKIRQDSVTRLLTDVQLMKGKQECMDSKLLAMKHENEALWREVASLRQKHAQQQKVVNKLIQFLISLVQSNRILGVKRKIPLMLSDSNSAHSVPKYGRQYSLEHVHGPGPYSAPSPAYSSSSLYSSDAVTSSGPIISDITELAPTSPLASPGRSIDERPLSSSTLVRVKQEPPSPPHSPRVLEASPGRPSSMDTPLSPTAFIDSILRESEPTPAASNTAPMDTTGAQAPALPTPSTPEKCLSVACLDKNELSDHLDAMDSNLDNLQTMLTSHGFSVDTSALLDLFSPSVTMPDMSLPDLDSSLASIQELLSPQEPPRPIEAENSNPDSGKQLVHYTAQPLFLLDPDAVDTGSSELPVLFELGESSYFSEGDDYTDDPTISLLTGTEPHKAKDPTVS
# [11] = target: T4, DNA repair protein RAD52 homolog (Homo sapiens, UniProt P43351); assay type: functional, biochemical
# T4 sequence (P43351 whole entry): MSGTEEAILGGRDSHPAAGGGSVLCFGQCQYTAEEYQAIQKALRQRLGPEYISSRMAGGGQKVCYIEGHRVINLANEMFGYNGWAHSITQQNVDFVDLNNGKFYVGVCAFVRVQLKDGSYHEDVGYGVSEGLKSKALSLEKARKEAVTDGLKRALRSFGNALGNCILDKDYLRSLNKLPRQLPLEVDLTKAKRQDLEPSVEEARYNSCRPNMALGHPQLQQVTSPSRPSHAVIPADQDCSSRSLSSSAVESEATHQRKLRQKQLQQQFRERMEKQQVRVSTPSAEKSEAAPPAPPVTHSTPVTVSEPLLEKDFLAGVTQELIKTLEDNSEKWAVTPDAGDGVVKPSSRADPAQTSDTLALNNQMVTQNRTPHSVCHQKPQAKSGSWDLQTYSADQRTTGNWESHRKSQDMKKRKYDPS
# [12] = target: T5, Calpain-2 catalytic subunit (Sus scrofa, UniProt P43367); experiment: pig calpain II inhibitor potency, dose response, biochemical, fluorogenic peptide substrate (AID 1420); assay type: functional
# T5 sequence (P43367 whole entry): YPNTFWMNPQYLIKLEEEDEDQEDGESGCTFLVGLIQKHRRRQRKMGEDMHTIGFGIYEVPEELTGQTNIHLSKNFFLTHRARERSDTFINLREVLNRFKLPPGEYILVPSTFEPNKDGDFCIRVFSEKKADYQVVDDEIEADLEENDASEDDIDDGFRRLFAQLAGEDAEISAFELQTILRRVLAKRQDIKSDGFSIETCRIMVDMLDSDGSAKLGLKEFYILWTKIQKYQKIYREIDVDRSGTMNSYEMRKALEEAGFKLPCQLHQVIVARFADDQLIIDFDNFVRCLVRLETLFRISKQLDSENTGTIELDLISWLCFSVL
# [13] = target: T6, Histone-lysine N-methyltransferase NSD2 (Homo sapiens, UniProt O96028); assay type: biochemical
# T6 sequence (O96028 whole entry): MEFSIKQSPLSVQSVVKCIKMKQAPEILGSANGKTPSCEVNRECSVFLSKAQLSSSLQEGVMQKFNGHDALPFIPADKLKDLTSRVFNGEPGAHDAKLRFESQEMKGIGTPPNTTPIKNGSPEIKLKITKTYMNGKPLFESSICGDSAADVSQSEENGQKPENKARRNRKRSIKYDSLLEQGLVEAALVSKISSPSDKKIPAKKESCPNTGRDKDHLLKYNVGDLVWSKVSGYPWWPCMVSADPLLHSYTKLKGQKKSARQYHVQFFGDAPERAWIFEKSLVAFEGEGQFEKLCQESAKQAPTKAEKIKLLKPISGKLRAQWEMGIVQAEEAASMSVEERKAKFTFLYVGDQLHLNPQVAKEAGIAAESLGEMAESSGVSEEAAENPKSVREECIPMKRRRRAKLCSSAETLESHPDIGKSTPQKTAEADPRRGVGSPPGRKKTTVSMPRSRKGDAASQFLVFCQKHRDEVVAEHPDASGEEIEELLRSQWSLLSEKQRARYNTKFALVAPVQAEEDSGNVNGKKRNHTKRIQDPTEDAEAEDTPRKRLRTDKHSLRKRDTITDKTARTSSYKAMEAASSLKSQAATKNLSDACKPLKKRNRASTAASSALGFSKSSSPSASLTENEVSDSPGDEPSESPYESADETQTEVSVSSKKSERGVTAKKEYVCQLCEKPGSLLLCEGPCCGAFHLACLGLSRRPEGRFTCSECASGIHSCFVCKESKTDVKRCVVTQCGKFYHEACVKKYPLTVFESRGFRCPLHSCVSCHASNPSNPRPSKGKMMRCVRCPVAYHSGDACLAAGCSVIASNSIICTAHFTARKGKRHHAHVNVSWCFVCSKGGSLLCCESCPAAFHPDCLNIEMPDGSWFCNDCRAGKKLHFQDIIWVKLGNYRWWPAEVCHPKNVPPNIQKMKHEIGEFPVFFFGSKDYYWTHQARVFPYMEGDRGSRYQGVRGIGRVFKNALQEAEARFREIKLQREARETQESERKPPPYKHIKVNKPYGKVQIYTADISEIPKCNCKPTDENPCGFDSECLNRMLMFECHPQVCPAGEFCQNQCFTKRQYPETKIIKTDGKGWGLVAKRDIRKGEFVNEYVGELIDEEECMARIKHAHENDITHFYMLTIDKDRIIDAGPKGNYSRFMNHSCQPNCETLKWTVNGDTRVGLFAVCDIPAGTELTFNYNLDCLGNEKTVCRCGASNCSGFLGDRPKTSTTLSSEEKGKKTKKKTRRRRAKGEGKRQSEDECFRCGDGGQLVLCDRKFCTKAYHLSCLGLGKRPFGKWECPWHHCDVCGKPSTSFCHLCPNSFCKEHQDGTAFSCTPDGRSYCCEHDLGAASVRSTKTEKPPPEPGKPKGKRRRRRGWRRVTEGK
# [14] = target: Paired box protein Pax-8 (Homo sapiens, UniProt Q06710); experiment: inhibitors of PAX8-driven TPO luciferase reporter, dose response, RMG-I cells, cherry-pick (AID 687027); assay type: functional, cell-based;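 note: luciferase reporter driven by Pax8 target thyroperoxidase promoter measured by SteadyGlo luminescence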
# Sequence of Paired box protein Pax-8 (Q06710 whole entry, the tested form may be a part): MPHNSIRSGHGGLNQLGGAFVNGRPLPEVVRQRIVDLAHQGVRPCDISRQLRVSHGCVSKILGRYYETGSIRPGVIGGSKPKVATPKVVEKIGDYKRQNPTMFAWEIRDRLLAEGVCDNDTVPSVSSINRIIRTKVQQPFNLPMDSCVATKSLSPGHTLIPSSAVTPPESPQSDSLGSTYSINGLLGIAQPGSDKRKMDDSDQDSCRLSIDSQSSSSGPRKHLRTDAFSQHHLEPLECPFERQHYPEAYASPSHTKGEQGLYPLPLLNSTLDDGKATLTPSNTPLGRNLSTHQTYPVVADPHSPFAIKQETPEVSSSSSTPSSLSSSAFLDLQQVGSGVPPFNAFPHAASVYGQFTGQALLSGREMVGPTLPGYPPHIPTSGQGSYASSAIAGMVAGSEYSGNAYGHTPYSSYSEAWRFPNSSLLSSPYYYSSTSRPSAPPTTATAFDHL
# [15] = target: T7, Fatty acid synthase (Homo sapiens, UniProt P49327); experiment: FAS thioesterase domain inhibitors, dose response, biochemical, endpoint fluorescence intensity, uHTS hits (AID 624327); assay type: functional;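 note: fluorescence from hydrolysis of an O-methyl fluorescein acyl ester substrate by the enzyme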
# T7 sequence (P49327 whole entry, the tested form may be a part): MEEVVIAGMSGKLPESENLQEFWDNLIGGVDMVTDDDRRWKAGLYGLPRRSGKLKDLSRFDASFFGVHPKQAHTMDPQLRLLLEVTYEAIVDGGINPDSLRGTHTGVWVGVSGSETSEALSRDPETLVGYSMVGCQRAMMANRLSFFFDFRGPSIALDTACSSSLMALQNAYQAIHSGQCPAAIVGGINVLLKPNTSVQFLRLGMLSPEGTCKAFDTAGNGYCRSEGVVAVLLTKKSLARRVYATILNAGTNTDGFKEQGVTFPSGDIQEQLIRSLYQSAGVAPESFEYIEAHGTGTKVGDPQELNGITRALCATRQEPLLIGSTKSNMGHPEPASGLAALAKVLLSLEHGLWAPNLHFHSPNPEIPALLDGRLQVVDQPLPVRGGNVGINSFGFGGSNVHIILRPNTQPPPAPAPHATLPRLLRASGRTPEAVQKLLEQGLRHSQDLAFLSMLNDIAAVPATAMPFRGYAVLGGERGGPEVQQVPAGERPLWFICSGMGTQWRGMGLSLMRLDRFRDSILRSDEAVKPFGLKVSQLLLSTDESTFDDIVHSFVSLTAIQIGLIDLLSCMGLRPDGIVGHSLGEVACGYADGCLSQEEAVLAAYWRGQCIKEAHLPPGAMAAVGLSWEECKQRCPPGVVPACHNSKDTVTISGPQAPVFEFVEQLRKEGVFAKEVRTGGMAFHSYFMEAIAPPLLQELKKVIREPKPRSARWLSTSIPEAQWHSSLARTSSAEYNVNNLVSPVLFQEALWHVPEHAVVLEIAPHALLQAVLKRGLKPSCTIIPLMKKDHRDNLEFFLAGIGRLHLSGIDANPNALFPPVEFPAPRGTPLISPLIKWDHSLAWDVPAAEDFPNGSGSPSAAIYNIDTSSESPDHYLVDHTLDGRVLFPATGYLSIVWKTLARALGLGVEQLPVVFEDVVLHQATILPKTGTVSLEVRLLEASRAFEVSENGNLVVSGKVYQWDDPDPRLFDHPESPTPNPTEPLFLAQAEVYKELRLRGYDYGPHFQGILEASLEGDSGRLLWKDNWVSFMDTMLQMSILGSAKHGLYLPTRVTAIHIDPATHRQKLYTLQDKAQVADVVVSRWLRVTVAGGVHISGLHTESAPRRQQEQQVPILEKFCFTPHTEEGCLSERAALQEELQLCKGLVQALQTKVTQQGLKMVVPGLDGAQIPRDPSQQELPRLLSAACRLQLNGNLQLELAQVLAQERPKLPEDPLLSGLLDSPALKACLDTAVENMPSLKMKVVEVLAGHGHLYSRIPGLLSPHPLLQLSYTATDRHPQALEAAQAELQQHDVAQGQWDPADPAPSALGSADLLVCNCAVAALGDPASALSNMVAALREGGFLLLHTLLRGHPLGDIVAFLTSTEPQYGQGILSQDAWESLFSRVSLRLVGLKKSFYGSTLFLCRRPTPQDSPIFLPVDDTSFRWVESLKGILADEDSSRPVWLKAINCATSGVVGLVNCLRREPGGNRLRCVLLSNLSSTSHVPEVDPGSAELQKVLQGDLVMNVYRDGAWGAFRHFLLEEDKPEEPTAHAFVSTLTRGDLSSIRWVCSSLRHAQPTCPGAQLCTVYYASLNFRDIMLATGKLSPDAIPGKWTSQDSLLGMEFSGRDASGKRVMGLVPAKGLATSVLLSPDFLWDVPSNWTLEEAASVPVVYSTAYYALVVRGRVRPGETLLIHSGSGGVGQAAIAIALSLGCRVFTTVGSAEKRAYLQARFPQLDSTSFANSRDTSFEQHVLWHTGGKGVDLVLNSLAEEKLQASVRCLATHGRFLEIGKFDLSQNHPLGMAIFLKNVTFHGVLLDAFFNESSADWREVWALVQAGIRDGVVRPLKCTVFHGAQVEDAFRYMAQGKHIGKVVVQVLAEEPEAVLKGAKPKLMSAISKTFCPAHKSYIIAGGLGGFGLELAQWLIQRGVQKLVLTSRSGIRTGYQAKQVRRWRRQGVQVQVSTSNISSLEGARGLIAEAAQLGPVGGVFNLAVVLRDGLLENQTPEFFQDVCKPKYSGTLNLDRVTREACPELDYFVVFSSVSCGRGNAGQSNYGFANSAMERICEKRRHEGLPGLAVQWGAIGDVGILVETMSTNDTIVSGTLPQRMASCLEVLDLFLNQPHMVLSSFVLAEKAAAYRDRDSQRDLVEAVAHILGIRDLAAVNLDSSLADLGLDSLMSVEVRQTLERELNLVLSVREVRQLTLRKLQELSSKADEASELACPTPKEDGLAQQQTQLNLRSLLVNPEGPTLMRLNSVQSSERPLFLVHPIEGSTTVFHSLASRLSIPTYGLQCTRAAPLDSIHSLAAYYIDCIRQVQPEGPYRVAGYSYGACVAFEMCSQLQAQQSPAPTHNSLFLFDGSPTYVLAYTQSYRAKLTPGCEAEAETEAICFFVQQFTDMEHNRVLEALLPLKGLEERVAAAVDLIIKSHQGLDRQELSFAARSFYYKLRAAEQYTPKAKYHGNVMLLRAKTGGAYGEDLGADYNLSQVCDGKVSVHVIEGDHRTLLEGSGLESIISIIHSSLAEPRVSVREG
# [16] = target: T8, Long-chain-fatty-acid--AMP ligase FadD28 (Mycobacterium tuberculosis, UniProt P9WQ59); experiment: Fluorescence polarization aasay to screen for inhibitors that compete for the binding of FadD28 to a bisubstrate Measured in Biochemical System Using Plate Reader - 2147-01_Inhibitor_Dose_CherryPick_Activity.; assay type: functional, Mycobacterium tuberculosis H37Rv
# T8 sequence (P9WQ59 whole entry): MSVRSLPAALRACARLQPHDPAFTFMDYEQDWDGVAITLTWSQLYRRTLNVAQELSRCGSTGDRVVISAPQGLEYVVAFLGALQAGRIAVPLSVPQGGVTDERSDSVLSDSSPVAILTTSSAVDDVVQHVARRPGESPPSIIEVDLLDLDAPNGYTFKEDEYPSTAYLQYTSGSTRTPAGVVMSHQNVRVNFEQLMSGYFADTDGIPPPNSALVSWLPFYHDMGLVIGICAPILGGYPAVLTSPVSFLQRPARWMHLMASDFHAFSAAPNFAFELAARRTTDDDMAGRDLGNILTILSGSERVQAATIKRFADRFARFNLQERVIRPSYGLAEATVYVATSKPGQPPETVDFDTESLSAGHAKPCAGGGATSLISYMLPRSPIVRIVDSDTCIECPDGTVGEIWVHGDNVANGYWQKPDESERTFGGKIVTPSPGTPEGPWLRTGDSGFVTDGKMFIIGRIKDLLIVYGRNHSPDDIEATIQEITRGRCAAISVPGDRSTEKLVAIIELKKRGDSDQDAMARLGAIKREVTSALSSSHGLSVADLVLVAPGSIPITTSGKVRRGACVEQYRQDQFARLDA
# [17] = target: T7, Fatty acid synthase; experiment: FAS thioesterase domain inhibitors, dose response, biochemical, kinetic fluorescence intensity (AID 624326); assay type: functional;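 note: rate of fluorescence rise from hydrolysis of a fluorogenic O-methyl fluorescein ester substrate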
smiles,measurement,setting,value
COc1c(C(=O)Nc2nnc(C3CC3)s2)csc1Cl,EC50,[1],> 67.6 µM (inactive)
same,EC50,[2],> 67.6 µM (inactive)
O=C(Nc1nccs1)c1c(O)nc2c(c1O)CCCC2,EC50,[3],< 0.1 µM (active)
same,EC50,[4],0.475 µM (active)
same,EC50,[5],0.999 µM (active)
same,EC50,[6],0.504 µM (active)
same,EC50,[7],0.446 µM (active)
CCOC(=O)Cn1nnnc1C(C(C)C)N(Cc1cccs1)Cc1cc2cc(C)ccc2nc1O (stereo not drawn),EC50,[8],> 29.9 µM (inactive)
same,IC50,[9],> 29.9 µM (inactive)
O=C(Nc1ccccc1)N1CC=C(c2ccccc2)CC1,EC50,[3],< 0.1 µM (active)
same,EC50,[4],0.272 µM (active)
same,EC50,[6],0.376 µM (active)
same,EC50,[7],0.237 µM (active)
Nc1nn(-c2cccc(F)n2)cc1-c1ccc(Cl)cc1,EC50,[1],> 67.6 µM (inactive)
same,EC50,[10],> 260 µM (inconclusive)
same,EC50,[2],> 67.6 µM (inactive)
CN1CCN(c2ccc(NC(=O)c3cc(S(N)(=O)=O)ccc3N3CCOCC3)cc2)CC1,AC50,[11],8.83 µM (active)
O=C1c2cccc(Sc3ccccc3)c2C(=O)c2c(Sc3ccccc3)cccc21,IC50,[12],6.16 µM (not active)
same,AC50,[13],5.27 µM (active)
CC1OC(OC2C=C3CCC4C(CCC5(C)C(c6ccc(=O)oc6)CCC45O)C3(C)CC2)C(O)C(OC2OC(CO)C(O)C(O)C2O)C1O (stereo not drawn),EC50,[8],> 29.9 µM (inactive)
same,IC50,[9],> 29.9 µM (inactive)
same,AC50,[14],< 0.26 µM (active)
Cc1cccc(C)c1Cn1c(C)c(C(=O)NCc2ccc([N+](=O)[O-])cc2)sc1=O,IC50,[15],6.75 µM (active)
same,AC50,[16],20.5 µM (active)
same,IC50,[17],4.48 µM (active)
c1ccc(-c2csc(Nc3ccc4c(c3)OCO4)n2)cc1,EC50,[1],> 67.6 µM (inactive)
same,EC50,[2],> 67.6 µM (inactive)
c1ccc2c(c1)COc1c3cc4c(cc3nn1-2)OCO4,EC50,[1],> 67.6 µM (inactive)
same,EC50,[2],> 67.6 µM (inactive)
FC(F)(F)c1cccc(/C=N/NC(=S)NC2CCCCC2)c1,EC50,[8],> 29.9 µM (inactive)
same,IC50,[9],3.19 µM (active)
C[C@H](NCCc1ccc(O)cc1)[C@H](O)c1ccc(O)cc1 [RITODRINE],EC50,[8],> 29.9 µM (inactive)
same,IC50,[9],0.932 µM (active)
